Experimental data taken from the supplement of paper PMC10307832.

Tests used:
Test in all cases: relative viability (nuclei count vs DMSO), 5 days (fraction); higher = more cells survive
[1] = compound: CCCS(=O)(=O)Nc1ccc(F)c(C(=O)c2c[nH]c3ncc(-c4ccc(Cl)cc4)cc23)c1F [Vemurafenib]
In short: (§1)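 Lung cancer cell lines were seeded into 1536-well plates, kept overnight at 37 °C and pinned with five library-drug doses (not always all listed) spaced by √10. After 5 days, nuclei were Hoechst-stained, imaged at 4× and counted with MetaXpress. Viability is treated-well nuclei over vehicle-well nuclei, taken as a median across plates. Plates needed control CV below 25% and at least one doubling.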

[2] = compound: COc1cccc2cc(-c3nc([C@H]4CC[C@H](C(=O)O)CC4)n4ncnc(N)c34)[nH]c12 [OSI-027]
In short: as §1

[3] = compound: COc1cccc2cc(-c3nc([C@H]4CC[C@H](C(=O)O)CC4)n4ncnc(N)c34)[nH]c12 [OSI-027] + C[C@]1(O)C[C@@H](c2nc(-c3ccc4ccc(-c5ccccc5)nc4c3)c3c(N)nccn32)C1 [Linsitinib] (partner 1 µM)
In short: (§2)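 One day after seeding in 1536-well plates, lung cancer cell lines were dosed by pin tool. Dosing was either single-drug or a fixed anchor-drug dose plus five library-drug doses (not always all listed) in √10 steps. After 5 days, nuclei were stained in one fix-and-stain step and counted on 4× images, and relative viability is the nuclei count of treated wells over that of vehicle wells, given as the median of duplicate plates.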

[4] = compound: COc1cccc2cc(-c3nc([C@H]4CC[C@H](C(=O)O)CC4)n4ncnc(N)c34)[nH]c12 [OSI-027] + CCNC(=O)c1noc(-c2cc(C(C)C)c(O)cc2O)c1-c1ccc(CN2CCOCC2)cc1 [Luminespib] (partner 0.01 µM)
In short: as §2

Row | Cell Line | relative viability ([1]; 0.03162 µM) | relative viability ([1]; 0.1 µM) | relative viability ([1]; 0.3162 µM) | relative viability ([1]; 1 µM) | relative viability ([2]; 0.01 µM) | relative viability ([2]; 0.03162 µM) | relative viability ([2]; 0.1 µM) | relative viability ([2]; 0.3162 µM) | relative viability ([2]; 0.5 µM, anchor plate) | relative viability ([2]; 1 µM) | relative viability ([3]; first compound 0.01 µM) | relative viability ([3]; first compound 0.03162 µM) | relative viability ([3]; first compound 0.1 µM) | relative viability ([3]; first compound 0.3162 µM) | relative viability ([3]; first compound 1 µM) | relative viability ([4]; first compound 0.01 µM) | relative viability ([4]; first compound 0.03162 µM) | relative viability ([4]; first compound 0.1 µM) | relative viability ([4]; first compound 0.3162 µM) | relative viability ([4]; first compound 1 µM)
1 | NCI-H1355 | 0.933 | 0.908 | 0.925 | 0.96 | 0.985 | 0.985 | 0.898 | 0.823 | 0.451 | 0.444 | 0.759 | 0.687 | 0.643 | 0.374 | 0.218 | 0.604 | 0.582 | 0.589 | 0.416 | 0.406
2 | NCI-H1395 | 0.755 | 0.951 | – | 0.949 | 0.914 | 0.898 | 0.814 | 0.795 | 0.69 | 0.7 | 1.18 | 1.16 | 0.924 | 0.857 | 0.77 | 0.717 | 0.556 | 0.621 | 0.546 | 0.439
3 | NCI-H1437 | 0.904 | 0.958 | 0.974 | 1.05 | 1 | 0.921 | 1.01 | 0.914 | 0.881 | 0.565 | 0.962 | 0.6 | 0.702 | 0.292 | 0.155 | 1.08 | 1.12 | 1.16 | 1.14 | 0.806
4 | NCI-H1563 | 0.989 | 0.905 | 0.967 | 0.988 | 0.979 | 0.955 | 0.953 | 0.854 | 0.769 | 0.75 | 1.13 | 1.21 | 1.1 | 0.929 | 0.677 | 0.479 | 0.479 | 0.455 | 0.517 | 0.481
5 | NCI-H1651 | 0.919 | 0.998 | 0.887 | 0.966 | 0.96 | 0.828 | 0.977 | 0.901 | 0.71 | 0.723 | 0.938 | – | 0.801 | 0.514 | 0.285 | 0.866 | 0.691 | 1.08 | 0.79 | 0.725
6 | NCI-H1666 | 0.946 | 0.902 | 1.1 | 0.926 | 0.99 | 0.986 | 0.98 | 0.88 | 0.863 | 0.666 | 0.775 | 0.536 | 0.459 | 0.337 | 0.39 | 1.01 | 1 | 0.996 | 0.891 | 0.915
7 | NCI-H1734 | 0.967 | 1.02 | 0.779 | 0.875 | 0.962 | 0.991 | 0.826 | 0.785 | 0.615 | 0.684 | 0.937 | 0.794 | 0.809 | 0.656 | 0.309 | 0.174 | 0.179 | 0.203 | 0.166 | 0.178
8 | NCI-H1755 | 0.958 | 0.969 | 0.823 | 0.957 | 0.983 | 0.921 | 0.988 | 0.898 | 0.745 | 0.78 | 0.976 | 1.05 | 1.02 | 0.885 | 0.392 | 0.577 | 0.533 | 0.369 | 0.382 | 0.416
9 | NCI-H1792 | 0.776 | 0.904 | 0.624 | 0.914 | 0.658 | 0.841 | 0.843 | 0.709 | 0.784 | 0.374 | 0.466 | 0.237 | 0.394 | 0.229 | 0.22 | 0.737 | 0.268 | 0.37 | 0.422 | 0.18
10 | NCI-H1793 | 0.836 | – | 0.775 | 0.867 | 0.902 | 0.976 | 0.781 | 0.579 | 0.284 | 0.295 | 1.04 | 0.875 | 0.612 | 0.225 | 0.188 | 0.162 | 0.188 | 0.168 | 0.132 | 0.168
11 | NCI-H1915 | 0.948 | 0.964 | 0.755 | 0.845 | 1.05 | 1.09 | 0.967 | 0.891 | 0.601 | 0.791 | 1.11 | 1.13 | 1.12 | 1.02 | 0.863 | 1.04 | 0.972 | 0.862 | 0.687 | 0.562
12 | NCI-H1944 | 0.939 | 0.772 | 0.895 | 0.933 | 0.916 | 0.915 | 0.808 | 0.743 | 0.457 | 0.567 | 1.11 | 1.14 | 1.05 | 0.771 | 0.836 | 0.856 | 0.82 | 0.537 | 0.534 | 0.273
13 | NCI-H1975 | 0.922 | 0.9 | 0.696 | 0.886 | 0.977 | 0.924 | 0.926 | 0.953 | 0.729 | 0.622 | 1.09 | 1.03 | 0.822 | 0.706 | 0.339 | 0.232 | 0.195 | 0.157 | 0.121 | 0.187
14 | NCI-H1993 | 0.844 | – | 0.993 | 0.974 | 0.803 | 0.817 | 0.704 | 0.611 | 0.558 | 0.438 | 0.684 | 0.777 | 0.703 | 0.603 | 0.681 | 0.815 | 0.795 | 0.71 | 0.498 | 0.548
15 | NCI-H2009 | 0.95 | 0.938 | 0.716 | 0.866 | 1.01 | 0.992 | 0.965 | 0.948 | 0.629 | 0.617 | 1.25 | 1.2 | 1.16 | 1.03 | 0.765 | 1.08 | 1.06 | 1.05 | 0.924 | 0.603
16 | NCI-H2023 | 0.915 | 0.863 | 0.908 | 0.957 | 0.952 | 0.855 | 0.819 | 0.566 | 0.429 | 0.377 | 0.622 | 0.507 | 0.566 | 0.292 | 0.143 | 0.812 | 0.59 | 0.646 | 0.709 | 0.27
17 | NCI-H2085 | 0.89 | 0.885 | 0.805 | 1.02 | 0.962 | 0.967 | 0.928 | 0.926 | 0.789 | 0.658 | 0.884 | 0.847 | 0.82 | 0.753 | 0.422 | 0.647 | 0.437 | 0.439 | 0.341 | 0.231
18 | NCI-H2087 | 1.01 | 1.11 | – | 1.13 | 0.986 | 1.03 | 0.911 | 0.911 | 0.605 | 0.508 | 1.03 | 0.845 | 0.819 | 0.632 | 0.29 | 0.143 | 0.166 | 0.176 | 0.133 | 0.158
19 | NCI-H2126 | 0.925 | 0.845 | 0.966 | 0.988 | 0.977 | 1.02 | 0.943 | 0.873 | 0.722 | 0.664 | 0.739 | 0.593 | 0.536 | 0.416 | 0.701 | 0.93 | 1.01 | 0.85 | 0.575 | 0.547
20 | NCI-H2228 | 1.04 | 0.948 | 1.05 | 0.999 | 0.975 | 0.88 | 0.957 | 0.941 | 0.625 | 0.619 | 0.637 | 0.768 | 0.576 | – | 0.368 | 0.165 | 0.162 | 0.0954 | 0.122 | 0.111
21 | NCI-H2347 | 0.939 | 1.02 | 0.791 | 0.924 | 0.979 | 1.07 | 0.904 | 0.772 | 0.376 | 0.516 | 1.03 | 0.877 | 0.883 | 0.885 | 0.521 | 0.283 | 0.339 | 0.604 | 0.279 | 0.288
22 | NCI-H2405 | 0.945 | 0.955 | – | 0.98 | 0.981 | 0.981 | 0.887 | 0.795 | 0.646 | 0.518 | 0.871 | 0.81 | 0.702 | 0.404 | 0.393 | 0.678 | 0.647 | 0.559 | 0.479 | 0.443
23 | NCI-H3122 | 1.03 | 0.979 | 1.03 | 1.12 | 1.03 | 1.02 | 1.08 | 0.959 | 1.03 | 0.704 | 1.04 | 1.04 | 1.07 | 0.763 | 0.289 | 0.0994 | 0.0843 | 0.054 | 0.0869 | 0.0772
24 | PC-3 [JPC-3] | 0.972 | – | 0.971 | 1.18 | 1.01 | 0.993 | 1.03 | 0.918 | 0.745 | 0.698 | 0.943 | 1.01 | 0.971 | 0.867 | 0.834 | 0.839 | 0.553 | 0.661 | 0.598 | 0.332
25 | PC-14 | 0.94 | – | 0.864 | 1.01 | 1 | 1.04 | 0.965 | 0.979 | 0.815 | 0.765 | 0.944 | 0.946 | 0.891 | 0.914 | 0.582 | 0.146 | 0.108 | 0.126 | 0.17 | 0.17
26 | RERF-LC-KJ | 0.957 | 0.984 | 0.942 | 1.03 | 0.942 | 1.01 | 0.933 | 0.735 | 0.597 | 0.464 | 0.839 | 0.776 | 0.655 | 0.503 | 0.376 | 1.41 | 1.09 | 1.08 | 1.09 | 0.459
27 | SK-LU-1 | 0.95 | 0.958 | 0.669 | 0.978 | 1.08 | 0.974 | 0.916 | 0.608 | 0.328 | 0.425 | 1.06 | 0.83 | 0.63 | 0.406 | 0.306 | 0.188 | 0.198 | 0.173 | 0.181 | 0.152
28 | SK-MES-1 | 0.969 | 0.727 | 0.932 | 0.973 | 1.04 | 0.967 | 0.922 | 0.78 | 0.605 | 0.35 | 1.01 | 0.956 | 0.911 | 0.737 | 0.538 | 0.75 | 0.63 | 0.731 | 0.554 | 0.227
29 | SW 1573 | 0.916 | 0.927 | 0.957 | 0.941 | 0.951 | 0.892 | 0.938 | 0.878 | 0.671 | 0.655 | 0.777 | 0.712 | 0.771 | 0.586 | 0.462 | 0.235 | 0.19 | 0.184 | 0.214 | 0.13
